The subject of data set [1] is mechanical allodynia induced by ligation of the L5 spinal nerve. The experiment in a line: Chung neuropathic model: mechanical allodynia, paw withdrawal threshold to von Frey filaments. The format is in vivo, rat. From the text: The Chung Neuropathic Model is an animal model of neuropathic pain. Animals with tight ligation of the L5 spinal nerve develop hyperalgesia and allodynia that can be measured using standard behavioural paradigms. Chung surgery: animals were anaesthetized with isoflurane administered in oxygen. Under sterile conditions, a longitudinal incision (about 5 mm lateral from the midline) was made at the lower lumbar-sacral level, exposing the paraspinal muscles on the left. The paraspinal muscles were then isolated and removed from the L4 spinous process to the sacrum using small blunt scissors. This opened up the space ventrolateral to the articular processes, dorsal to the L6 transverse process, and medial to the ileum. Small roungers were used to remove the L6 transverse process as completely as possible. The L5 spinal nerve was then isolated and tightly ligated. Upon completion of the operation, haemostasis was confirmed and the wound closed in layers using silk sutures and metal clips. Anaesthesia was then discontinued. Animals were kept in a cage with warm bedding until they had completely recovered from anaesthesia. The rats' withdrawal threshold to a mechanical stimulus (calibrated von Frey filaments) was measured (baseline reading). Rats were placed on an elevated (˜40 cm) mesh floor in Perspex boxes and filaments of increasing force (2.6-167 mN) were applied to the plantar surface of the paw using an up and down method (Chaplan et al., 1994). The paw was touched with one of a series of 8 von Frey hairs with logarithmically incremental stiffness. The von Frey hair was presented perpendicular to the plantar surface with sufficient force to cause buckling against the paw, and held for approximately 1-3 seconds. A positive response was noted if the paw was sharply withdrawn. A cut-off of 15 g was selected as the upper limit for testing, since stiffer hairs tend to raise the entire limb rather than buckling, substantially changing the nature of the stimulus. […] Data were expressed as mean±s.e.m. and compared between groups using the Kruskal-Wallis one-way analysis of variance, a non-parametric statistical test. Each of the treatment groups were then compared against the vehicle group, using the non-parametric Dunn's test. The time of maximum effect (Tmax) was calculated.

Data set [2] can be described thus: Side effects observed after s.c. dosing in the Chung neuropathic model.
Procedure: Following baseline measurements each animal was anaesthetised and the L5 spinal nerve tightly ligated. The animals were allowed to recover from the surgery for a period of at least five days. On the day of drug administration, the paw withdrawal thresholds were re-measured (0 min). […] Readings were then made at regular intervals after compound injection.
Data set [3] has as its system mechanical allodynia induced by ligation of the L5 spinal nerve. Description: Chung neuropathic model: mechanical allodynia, paw withdrawal threshold to von Frey filaments. The conditions noted are these: 10 and 30 μmol/kg, 40 min after administration, P<0.05 vs vehicle (Mann Whitney). It counts as in vivo, rat.

Regarding R-mirtazapine [reference compound], the Tmax (time of maximum effect) in data set [1] (10 μmol/kg s.c., Table 2) amounted to 30 min; in data set [1] (30 μmol/kg s.c., Table 2) it was 30 min; in data set [1] (100 μmol/kg s.c., Table 2), 30 min. In data set [1] (10-100 μmol/kg s.c., free base), the “Effect on mechanical allodynia” value is given as “no effect”. Further, the Anti-allodynic activity result in data set [1] (doses up to 100 μmol/kg s.c.) is reported as “no effect”.

With `CN1CCN2c3ncccc3Cc3ccccc3[C@H]2C1` [S(+)-mirtazapine], the Tmax (time of maximum effect) is 60 min in data set [1] (0.3 μmol/kg s.c.); 60 min in data set [1] (3 μmol/kg s.c.); 60 min in data set [1] (30 μmol/kg s.c., Table 1); 60 min in data set [1] (60 μmol/kg s.c.); 60 min in data set [1] (120 μmol/kg s.c.). In addition, in data set [1] (120 μmol/kg s.c.), the “Reversal of mechanical allodynia” value is on record as 53 % of the baseline. Besides, in data set [1] (60 and 120 μmol/kg s.c.), the Anti-allodynic activity entry is “Anti-allodynic activity”. Also, the “Effect on mechanical allodynia” value in data set [1] (subcutaneous administration, maleate salt) is on record as “significantly attenuated”. The Injection site finding result in data set [2] (120 μmol/kg s.c.) is “necrosis at site of injection”. In data set [2] (120 μmol/kg s.c.), the “Reaction on injection (s.c.)” value is “vocalisation/struggle on injection”. The “Behaviour when returned to holding cages after testing” value in data set [2] (60 and 120 μmol/kg group) is “hyperactive/excitable behaviour”.

As to `CN1CCN2c3ncccc3Cc3ccccc3C2C1` (racemic) [Racemic mirtazapine, mirtazapine], the “Effect on withdrawal threshold” value in data set [1] (10 and 30 μmol/kg, 40 min after administration, not dose-dependent) is “small but significant effect”. In data set [3], the Withdrawal threshold result is recorded as “up to 4 g”.

The record behind these values is patent US20070270413A1, “Mirtazapine for the treatment of neuropathic pain” (N.V. Organon, priority 2006, published 2007).
